Consider two compounds from paper PMC7383625, “Sequence‐Based Prediction of Promiscuous Acyltransferase Activity in Hydrolases” (Angewandte Chemie (International Ed. in English), 2020).

Each structure is given as a SMILES string.

What all share (format): biochemical
In assay [1] the target is T1, Est8 (uncultured bacterium, UniProt Z9EH37ATT5).
T1 construct: bHSL esterase with N-terminal cap domain; crystal structure solved here
T1 sequence (Z9EH37ATT5 1-297): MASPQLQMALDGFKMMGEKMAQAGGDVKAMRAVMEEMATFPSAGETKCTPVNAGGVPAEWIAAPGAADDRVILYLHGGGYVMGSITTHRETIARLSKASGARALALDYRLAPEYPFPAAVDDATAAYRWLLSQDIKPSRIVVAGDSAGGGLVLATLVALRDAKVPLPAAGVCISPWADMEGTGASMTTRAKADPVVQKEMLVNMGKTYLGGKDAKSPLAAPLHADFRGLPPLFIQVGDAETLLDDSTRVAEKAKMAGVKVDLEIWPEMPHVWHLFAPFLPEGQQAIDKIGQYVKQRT
The experiment in a line: GC of 2-phenylethyl acetate formation. The conditions noted are these: acyl acceptor, 20 mM; vinyl acetate 200 mM as acyl donor; 200 mM buffer at pH optimum.

For another assay, the target named is T2, 3ZWQ (Pyrobaculum calidifontis, UniProt A3MVR4).
T2 construct: gene Pcal_1307; named only by PDB code; construct in supplement
T2 sequence (A3MVR4 1-313): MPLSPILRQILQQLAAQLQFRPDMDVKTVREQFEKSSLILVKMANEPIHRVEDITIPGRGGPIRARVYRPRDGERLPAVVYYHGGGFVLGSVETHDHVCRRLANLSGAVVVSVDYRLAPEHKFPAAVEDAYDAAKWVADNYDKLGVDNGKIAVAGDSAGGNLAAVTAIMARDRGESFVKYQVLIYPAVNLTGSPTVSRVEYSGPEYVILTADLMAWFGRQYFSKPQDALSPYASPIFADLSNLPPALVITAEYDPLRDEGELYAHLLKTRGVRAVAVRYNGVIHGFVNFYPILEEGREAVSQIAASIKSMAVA
Put plainly: colorimetric pNPA acyltransferase assay, pNP release at […] nm. The note with it: acyl donor; benzyl alcohol or 2-phenylethanol as acyl acceptor.

The next assay concerns the target T3, 3FAK (uncultured bacterium, UniProt Q0GMU2).
T3 construct: named only by PDB code; construct in supplement
T3 sequence (Q0GMU2 with tags, fused parts or gaps): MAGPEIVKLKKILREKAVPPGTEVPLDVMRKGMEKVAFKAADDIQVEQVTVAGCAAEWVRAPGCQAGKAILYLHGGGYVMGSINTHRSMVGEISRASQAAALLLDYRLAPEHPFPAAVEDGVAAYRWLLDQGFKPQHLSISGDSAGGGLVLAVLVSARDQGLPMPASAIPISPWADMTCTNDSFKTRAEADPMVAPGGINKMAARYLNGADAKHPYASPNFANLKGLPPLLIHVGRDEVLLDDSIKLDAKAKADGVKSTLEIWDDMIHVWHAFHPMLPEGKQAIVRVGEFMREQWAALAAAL
Described as above. The note with it: acyl donor; benzyl alcohol or 2-phenylethanol as acyl acceptor.

The next assay deals with T4, 4XVC (uncultured bacterium, UniProt Z9PJA9OM60).
T4 construct: named only by PDB code; construct in supplement
T4 sequence (Z9PJA9OM60 21-317): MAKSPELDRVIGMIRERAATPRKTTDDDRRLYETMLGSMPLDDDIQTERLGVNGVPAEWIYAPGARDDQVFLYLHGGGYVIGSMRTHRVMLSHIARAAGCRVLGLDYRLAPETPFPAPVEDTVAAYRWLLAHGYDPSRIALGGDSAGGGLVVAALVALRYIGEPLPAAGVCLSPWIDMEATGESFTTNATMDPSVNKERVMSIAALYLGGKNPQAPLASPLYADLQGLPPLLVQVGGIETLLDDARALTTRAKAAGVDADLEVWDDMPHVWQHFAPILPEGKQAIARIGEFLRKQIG
The assay is described as above. The conditions noted are these: acyl donor; benzyl alcohol or 2-phenylethanol as acyl acceptor.

For assay [2], the target named is T1, Est8. The assay is described as above. The note with it: acyl donor; benzyl alcohol or 2-phenylethanol as acyl acceptor.
The next assay has as its target T5, 3K6K (uncultured bacterium, UniProt Z9ICY0V5A2).
T5 construct: named only by PDB code; construct in supplement
T5 sequence (Z9ICY0V5A2 15-328): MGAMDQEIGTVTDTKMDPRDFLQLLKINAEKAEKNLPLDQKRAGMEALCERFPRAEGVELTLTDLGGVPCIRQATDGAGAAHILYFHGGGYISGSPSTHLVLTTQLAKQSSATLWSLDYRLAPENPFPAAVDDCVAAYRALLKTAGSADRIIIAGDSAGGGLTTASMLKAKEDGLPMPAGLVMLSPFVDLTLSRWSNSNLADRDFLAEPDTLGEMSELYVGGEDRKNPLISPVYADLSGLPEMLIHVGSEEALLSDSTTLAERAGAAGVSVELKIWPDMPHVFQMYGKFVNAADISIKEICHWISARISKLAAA
The description is as above. The conditions noted are these: acyl donor; benzyl alcohol or 2-phenylethanol as acyl acceptor.

Take `OCCc1ccccc1` [2-phenylethanol]: the “GC of 2-phenylethyl acetate formation” value at Est8 [1] is given as “For Est8, product hydrolysis became more dominant than acyl transfer quickly”.

As to `CC(=O)Oc1ccc([N+](=O)[O-])cc1` [pNPA], the “colorimetric pNPA acyltransferase assay, pNP release at 405 nm” value is 3ZWQ showed three‐fold higher acyltransferase activity with benzyl alcohol, outperforming 1EVQ on 3ZWQ; “reactions were carried out for Est8 and its homologues using both benzyl alcohol” on 3FAK; “reactions were carried out for Est8 and its homologues using both benzyl alcohol” at 4XVC; “reactions were carried out for Est8 and its homologues using both benzyl alcohol” at Est8 [2]; “reactions were carried out for Est8 and its homologues using both benzyl alcohol” on 3K6K.
